Results: article PMC12142043, “Cell-based high-content approach for SARS-CoV-2 neutralization identifies unique monoclonal antibodies and PI3K pathway inhibitors” (Frontiers in Cell and Developmental Biology, 2025)
Structures can show the parent of a compound that is named as a salt. Where two headings read alike, the source gives them in different places.

System: SARS-CoV-2 (USA-WA1/2020) in Calu-3 cells
Format: cell-based
[1] = high dose (10 µM), Calu-3, 48 h
[2] = low dose (100 nM), Calu-3, 48 h

Compound	dsRNA signal, AU High [1] [AU]	dsRNA signal, AU Low [2] [AU]	dsRNA signal, AU High	dsRNA signal, AU Low
CO[C@H]1C[C@@H]2CC[C@@H](C)[C@@](O)(O2)C(=O)C(=O)N2CCCC[C@H]2C(=O)O[C@H]([C@H](C)C[C@@H]2CC[C@@H](O)[C@H](OC)C2)CC(=O)[C@H](C)/C=C(\C)[C@@H](O)[C@@H](OC)C(=O)[C@H](C)C[C@H](C)/C=C/C=C/C=C/1C [Rapamycin (Sirolimus)]	1745.1	58744.6		
CNC(=O)c1cc(Oc2ccc(NC(=O)Nc3ccc(Cl)c(C(F)(F)F)c3)c(F)c2)ccn1.Cl [Regorafenib hydrochloride]	724.9	22021.0		
CNC(=O)c1cc(Oc2ccc(NC(=O)Nc3ccc(Cl)c(C(F)(F)F)c3)c(F)c2)ccn1 [Regorafenib]	93.0	63322.3		
Oc1ccc(/C=C/c2cc(O)cc(O)c2)cc1 [Resveratrol]	13503.5	6902.6		
c1nc2nc(Nc3ccc(N4CCOCC4)cc3)nc(NC3CCCCC3)c2[nH]1 [Reversine]			27234.6	49415.3
CO[C@H]1C[C@@H]2CC[C@@H](C)[C@@](O)(O2)C(=O)C(=O)N2CCCC[C@H]2C(=O)O[C@H]([C@H](C)C[C@@H]2CC[C@@H](OP(C)(C)=O)[C@H](OC)C2)CC(=O)[C@H](C)/C=C(\C)[C@@H](O)[C@@H](OC)C(=O)[C@H](C)C[C@H](C)/C=C/C=C/C=C/1C [Ridaforolimus (Deforolimus, MK-8669)]	23072.2	31512.5		
COc1cc(OC)c(/C=C/S(=O)(=O)Cc2ccc(OC)c(NCC(=O)O)c2)c(OC)c1 [Rigosertib (ON-01910,Estybon)]	14175.0	4849.9		
O=C1NC(=NCc2cccs2)S/C1=C\c1ccc2ncccc2c1 [Ro 3306]	2807.1	25048.4		
O=C(/C=C/c1ccc(O)c(O)c1)O[C@H](Cc1ccc(O)c(O)c1)C(=O)O [Rosmarinic acid]	3864.4	42457.9		
C[C@@H]1COCCN1c1cc(=O)n2c(n1)N(Cc1cncc(Cl)c1)[C@H](C(F)(F)F)CC2 [SAR405]	1587.9	23454.9		
CCn1c(N)c(C(=O)NC)c(=O)c2ccc(C#C[C@@](C)(O)COC)nc21 [SAR131675]	44218.5	34484.3		
CN1C/C=C/CCOc2cccc(c2)-c2ccnc(n2)Nc2cccc(c2)C1 [SB1317]	1210.9	26680.2		
Oc1ccc(-c2nc(-c3ccc(F)cc3)c(-c3ccncc3)[nH]2)cc1 [SB202190 (FHPI)]	29217.1	9508.1		
Cc1cccc(-c2[nH]c(C(C)(C)C)nc2-c2ccc3nccnc3c2)n1 [SB525334]	34680.3	27941.4		
Cn1cc(C2=C(c3ccc(Cl)cc3Cl)C(=O)NC2=O)c2ccccc21 [SB 216763]	596.7	53506.5		
COc1nccc(-c2c(-c3ccc(F)cc3)ncn2C2CCC(O)CC2)n1 (centres unmarked) [SB 239063]	16458.2	15855.6		
NC(=O)c1ccc(-c2nc(-c3ccc4c(c3)OCO4)c(-c3ccccn3)[nH]2)cc1 [SB 431542]	540.4	12958.4		
O=C(Nc1ccc2[nH]nc(-c3ccncc3)c2c1)[C@@H]1CCN(CC(=O)N2CCN(c3ccc(-c4ncccn4)cc3)CC2)C1 [SCH772984]	21169.8	17905.7		
CC(C)(C)C(=O)Nc1ccc2c(c1)C(=O)C(=O)c1ccccc1-2 [SF1670]	30745.4	12301.2		
CN1CCC(CNc2ccc3ncc(-c4cccc(OC(F)(F)F)c4)n3n2)CC1 [SGI-1776 free base]	1583.1	29976.5		
Cn1cc(-c2ccc3nnc(Sc4ccc5ncccc5c4)n3n2)cn1 [SGX-523]	18702.9	25732.4		
Oc1ccc(Nc2nc(-c3ccc(Cl)cc3)cs2)cc1 [SKI II]	31334.0	21341.0		
CNC(=O)c1cc(Oc2ccc(NC(=O)c3cccc(C(F)(F)F)c3)cc2)ccn1 [SKLB610]	126.4	8430.0		
N#C/C(=C(/N)Sc1ccc(N)cc1)c1ccccc1C(F)(F)F [SL-327]	10911.9	24198.7		
CC(C)NC(=O)COc1cccc(-c2nc(Nc3ccc4[nH]ncc4c3)c3ccccc3n2)c1 [SLx-2119]	20785.5	59494.3		
O=C1NC(=O)/C(=C/c2cccc(C(F)(F)F)c2)S1 [SMI-4a]	0.0	12244.4		
O=C(Nc1cccc(Cl)c1)Nc1ncc(CCNc2ncnc3ccsc23)s1 [SNS-314 Mesylate]	5716.5	33317.4		
O=C(Nc1cc(C(F)(F)F)ccc1N1CCCCC1)c1ccncc1 [SRPIN340]	38969.9	6071.8		

Compound	dsRNA signal, AU High [1] [AU]	dsRNA signal, AU Low [2] [AU]	dsRNA signal, AU High	dsRNA signal, AU Low
COc1c(C)c(C(=O)c2ccc(N)c(C(=O)[O-])c2)n2ccccc12.[Na+] [SSR128129E]	4736.0	27624.5		
O=S(=O)(N=Cc1c(O)ccc2ccccc12)c1cccs1 [STF 083010]	54363.2	46405.9		
Cc1cc(C)c(/C=C2\C(=O)Nc3ccccc32)[nH]1 [SU5416]	39551.1	20455.1		
O=C(/C=C/c1ccccc1)NC(NC(=S)Nc1ccc(Cl)cc1)C(Cl)(Cl)Cl (centres unmarked) [Sal 003]	58234.6	61292.8		
OC[C@H]1O[C@@H](OCCc2ccc(O)cc2)[C@H](O)[C@@H](O)[C@@H]1O [Salidroside]	19295.0	56220.3		
C[n+]1cc2c3c(ccc2c2ccc4cc5c(cc4c21)OCO5)OCO3 [Sanguinarine chloride]	0.0	15548.2		
C[n+]1cc2c3c(ccc2c2ccc4cc5c(cc4c21)OCO5)OCO3 [Sanguinarine]	0.0	895.9		
O=C(O)[C@H]1O[C@@H](Oc2cc3oc(-c4ccc(O)cc4)cc(=O)c3c(O)c2O)[C@H](O)[C@@H](O)[C@@H]1O [Scutellarin]	1769.9	52840.4		
N#Cc1ccc2ncnc(NCCc3ccccc3)c2c1 [Senexin A]	30520.6	31796.6		
O=C(O)c1cc(O)c2c(c1)[C@@H]([C@H]1c3cc(C(=O)O)cc(O)c3C(=O)c3c(O[C@@H]4O[C@H](CO)[C@@H](O)[C@H](O)[C@H]4O)cccc31)c1cccc(O[C@@H]3O[C@H](CO)[C@@H](O)[C@H](O)[C@H]3O)c1C2=O [Sennoside B]	3953.3	3310.7		
CC(C)=CC[C@@H](O)C1=CC(=O)c2c(O)ccc(O)c2C1=O [Shikonin]	54262.1	4009.3		
CN1CCN(c2nc(C3=C(c4c[nH]c5ccccc45)C(=O)NC3=O)c3ccccc3n2)CC1 [Sotrastaurin (AEB071)]	6965.2	40818.2		
COc1cc(N2CCC(N3CCN(C)CC3)CC2)ccc1Nc1ncc(Cl)c(Nc2ccccc2S(=O)(=O)C(C)C)n1 [TAE684 (NVP-TAE684)]	41419.4	4182.3		
COc1cc(C(=O)NC2CCN(C)CC2)c(F)cc1Nc1ncc2c(n1)N(C1CCCC1)CC(F)(F)C(=O)N2C [TAK960]	9929.6	56355.2		
N#Cc1c(Oc2ccc(F)c(NC(=O)Cc3cccc(C(F)(F)F)c3)c2)ccc2nc(NC(=O)C3CC3)sc12 [TAK-632]	12667.4	8796.8		
CCc1nc(-c2cccc(C)c2)c(-c2ccnc(NC(=O)c3ccccc3)c2)s1 [TAK-715]	42569.8	29513.1		
CCS(=O)(=O)c1cccc(-c2cc(C(=O)NC3CCN(C)CC3)c(C)c3[nH]c4ncc(C)cc4c23)c1 [TAK-901]	42486.6	61332.6		
Brc1c(Br)c(Br)c2n[nH]nc2c1Br [TBB]	3323.3	16520.0		
COc1ccc(C(=O)Nc2sc3c(c2C(N)=O)CCCC3)cc1OC [TCS 359]	5896.0	63380.8		
N#Cc1c(NC(=O)c2cccc3ccccc23)sc2c1CCCC2 [TCS JNK 5a]	1144.9	17159.4		
N#Cc1c(-c2ccccc2)cc(-c2cc(Br)ccc2O)[nH]c1=O [TCS PIM-1 1]	1935.2	16463.0		
O=C1NC(=O)/C(=C/c2cccc(C(F)(F)F)c2)S1 [TCS-PIM-1-4a]	1917.5	12250.9		
Cn1sc(=O)n(Cc2ccccc2)c1=O [TDZD-8]	7580.3	26092.4		
CCN1/C(=C/C(C)=O)Sc2ccc(OC)cc21 [TG003]	1126.7	61445.9		
Nc1nc(N)c2nc(-c3cccc(O)c3)c(-c3cccc(O)c3)nc2n1 [TG100-115]	401.6	17405.4		
Cc1ccccc1CN1C(=O)C2=C(CCN(Cc3ccccc3)C2)N2CCN=C12 [TIC10]	0.0	1481.6		
Cc1[nH]c(/C=C2\C(=O)Nc3ccccc32)c(C)c1CCC(=O)O [TSU-68 (SU6668,Orantinib)]	4841.4	21696.8		
